Test results reported in patent publication EP0259782A1, “Naphthalene and indane derivatives, medicaments containing these compounds and processes for their preparation” (Dr. Karl Thomae GmbH, priority 1986, dated 1988).

How the values were obtained:
[1] = tested on: Herzfrequenz an Ratten; assay: Effect on heart rate in anaesthetised rats; assay type: in vivo; settings: rats anaesthetised with pentobarbital; dose 5,0 mg/kg injected into the Vena jugularis; 5 minutes after application; control heart rate 350-400 S/min; 2 rats per dose
Protocol: Wirkung auf die Herzfrequenz an Ratten: Die Wirkung der zu untersuchenden Substanzen auf die Herzfrequenz wurde pro Dosis an 2 Ratten mit einem durchschnittlichen Gewicht von 250-300 g untersucht. Hierzu wurden die Ratten mit Pentobarbital (50 mg/kg i.p. und 10 mg/kg s.c.) narkotisiert. Die zu untersuchenden Substanzen […]ösung in die Vena jugularis injiziert (0,1 ml/100 g). Der Blutdruck wurde über in eine A. carotis eingebundene Kanüle gemessen und die Herzfrequenz wurde aus einem mit Nadelelektroden abgeleiteten EKG (II. oder III. Ableitung) registriert. Die Herzfrequenz der […] 350 und 400 Schlägen/Minuten (S/min).

[2] = tested on: Mäusen; settings: in vivo, iv, 10 mg/kg
Excerpt: Die erfindungsgemäß hergestellten Verbindungen weisen in therapeutischen Dosen keinerlei toxische Nebenwirkungen auf.

| SMILES | Herzfrequenzsenkung, gemessen 5 Minuten nach Substanzapplikation [1] | toxische Nebenwirkungen [2] |
| --- | --- | --- |
| COc1ccc(CCN(C)CCCC2CCc3cc(OC)c(OC)cc3C2=O)cc1OC (centres unmarked) [Substanz A, 6,7-Dimethoxy-2-[3-((2-(3,4-dimethoxyphenyl)-ethyl)-methylamino)-propyl]-1-oxo-1,2,3,4-tetrahydro-naphthalin] | 157 S/min | außer einer geringen Sedation keine toxischen Nebenwirkungen |
| COc1ccc(CCN(C)CCCC2CCc3cc(OC)c(OC)cc3C2)cc1OC.Cl (centres unmarked) [Substanz B, 6,7-Dimethoxy-2-[3-((2-(3,4-dimethoxyphenyl)-ethyl)-methylamino)-propyl]-1,2,3,4-tetrahydro-naphthalin-hydrochlorid] | 150 S/min |  |
| COc1ccc(CCN(C)CCCC2Cc3cc(OC)c(OC)cc3C2O)cc1OC (centres unmarked) [Substanz C, 5,6-Dimethoxy-2-[3-((2-(3,4-dimethoxyphenyl)-ethyl)-methylamino)-propyl]-1-hydroxy-indan] | 152 S/min | außer einer geringen Sedation keine toxischen Nebenwirkungen |
